Changes are numbered by the printed parent chain. Several values for one entry are separate records, joined by “and”; a condition that tells them apart may be missing. Equal entries are not always repeated.
Legend:
WT CLC-Ka = target: T1, WT CLC-Ka (Homo sapiens, UniProt P51800); conditions: Xenopus oocytes; cited from earlier work
T1 sequence (P51800 1-687): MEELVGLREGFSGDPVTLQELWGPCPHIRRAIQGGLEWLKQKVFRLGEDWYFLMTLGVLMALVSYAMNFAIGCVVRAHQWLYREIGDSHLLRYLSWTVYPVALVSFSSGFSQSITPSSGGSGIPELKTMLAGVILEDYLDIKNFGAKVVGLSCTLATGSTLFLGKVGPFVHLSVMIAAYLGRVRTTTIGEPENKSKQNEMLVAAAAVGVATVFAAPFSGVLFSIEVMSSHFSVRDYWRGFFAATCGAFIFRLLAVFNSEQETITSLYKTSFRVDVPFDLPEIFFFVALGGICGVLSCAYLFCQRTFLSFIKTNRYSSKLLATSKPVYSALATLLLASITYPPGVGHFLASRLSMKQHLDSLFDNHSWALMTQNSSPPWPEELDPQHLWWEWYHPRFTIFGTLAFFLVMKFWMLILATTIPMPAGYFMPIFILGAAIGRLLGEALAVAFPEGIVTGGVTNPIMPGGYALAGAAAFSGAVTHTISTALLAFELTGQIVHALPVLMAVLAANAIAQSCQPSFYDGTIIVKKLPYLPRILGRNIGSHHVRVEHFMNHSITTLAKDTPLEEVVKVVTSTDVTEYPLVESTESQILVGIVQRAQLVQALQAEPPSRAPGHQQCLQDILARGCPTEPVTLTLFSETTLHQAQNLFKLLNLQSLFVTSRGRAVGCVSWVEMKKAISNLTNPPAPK
T1 sequence (Q8WZ55 1-320 Y98A partner): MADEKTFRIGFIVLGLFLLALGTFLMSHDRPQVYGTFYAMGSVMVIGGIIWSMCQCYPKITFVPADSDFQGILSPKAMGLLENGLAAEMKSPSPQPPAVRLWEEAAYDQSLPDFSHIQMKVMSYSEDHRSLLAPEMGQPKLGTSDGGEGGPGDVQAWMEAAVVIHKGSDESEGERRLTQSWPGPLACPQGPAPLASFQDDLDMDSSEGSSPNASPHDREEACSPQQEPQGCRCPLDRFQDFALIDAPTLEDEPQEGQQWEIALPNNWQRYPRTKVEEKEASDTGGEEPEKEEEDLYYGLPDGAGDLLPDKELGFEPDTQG

N257A CLC-Ka [1] = target: T2, N257A CLC-Ka (Homo sapiens, UniProt P51800, N257A); type: cell-based; conditions: 100 μM CPAint; negative voltages
T2 sequence (P51800 1-687 N257A): T1 sequence (P51800 1-687) with N257A
T2 sequence (Q8WZ55 1-320 Y98A partner): T1 sequence (Q8WZ55 1-320 Y98A partner)

N257A CLC-Ka [2] = target: T2, N257A CLC-Ka; type: cell-based; conditions: 50 μM CPA, intracellular; −100 mV
CLC-1 = conditions: negative potentials; cited from earlier work
CLC-0 = conditions: negative potentials; cited from earlier work

| Structure (SMILES) | effect on CLC-Ka (WT CLC-Ka) | effect of CPA on currents (N257A CLC-Ka [1]) | amplitude of predominant conductance level in the presence of CPA (N257A CLC-Ka [2]) | effect on CLC-1 currents (CLC-1) | effect on CLC-0 currents (CLC-0) |
| --- | --- | --- | --- | --- | --- |
| O=S(=O)(O)c1cc(N=C=S)ccc1C=Cc1ccc(N=C=S)cc1S(=O)(=O)O [DIDS] | inhibit | – | – | – | – |
| O=C(O)COc1ccc(Cl)cc1 [CPA, p-chlorophenoxy-acetic acid] | – | inhibits | ~ 0.66 pA and 0.66 pA | block | block |
| O=C(O)c1ccccc1Nc1cccc(C(F)(F)F)c1 [flufenamic acid] | inhibit | – | – | – | – |

— article PMC4331650 (Biochimica et Biophysica Acta, 2014)
